# The supplement of paper PMC10307832
# How the values were obtained:
# Assay in all cases: relative viability (nuclei count vs DMSO), 5 days (fraction); higher = more cells survive
# ABC-1 = system: ABC-1
# Procedure, shortened: (§1)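 Lung cancer cell lines were seeded in 1536-well plates and dosed by pin tool the next day, with either a single drug or a fixed anchor-drug dose combined with five library-drug doses (not always all listed) spaced in √10 steps. Five days later, one step fixed the cells and stained their nuclei (final 0.05% Triton X-100, 1% formaldehyde, 1 ug/ml Hoechst), and nuclei were counted on 4× images. Relative viability is the nuclei count in treated wells divided by the count in vehicle wells, and each value is the median of duplicate plates.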
# COR-L23 = system: COR-L23
# Procedure, shortened: as §1
# EPLC-272H = system: EPLC-272H
# Procedure, shortened: as §1
# HARA = system: HARA
# Procedure, shortened: as §1
# HCC-15 = system: HCC-15
# Procedure, shortened: as §1
# HCC-78 = system: HCC-78
# Procedure, shortened: as §1
# LC-2-ad = system: LC-2-ad
# Procedure, shortened: as §1
# LU99A = system: LU99A
# Procedure, shortened: as §1
# NCI-H1651 = system: NCI-H1651
# Procedure, shortened: as §1
# NCI-H1915 = system: NCI-H1915
# Procedure, shortened: as §1
# NCI-H1993 = system: NCI-H1993
# Procedure, shortened: as §1
# NCI-H2009 = system: NCI-H2009
# Procedure, shortened: as §1
# NCI-H2085 = system: NCI-H2085
# Procedure, shortened: as §1
# NCI-H2126 = system: NCI-H2126
# Procedure, shortened: as §1
# NCI-H2342 = system: NCI-H2342
# Procedure, shortened: as §1
# NCI-H2347 = system: NCI-H2347
# Procedure, shortened: as §1
# NCI-H358 = system: NCI-H358
# Procedure, shortened: as §1
# NCI-H460 = system: NCI-H460
# Procedure, shortened: as §1
# NCI-H522 = system: NCI-H522
# Procedure, shortened: as §1
# NCI-H650 = system: NCI-H650
# Procedure, shortened: as §1
# NCI-H838 = system: NCI-H838
# Procedure, shortened: as §1
# PC-14 = system: PC-14
# Procedure, shortened: as §1
# SW 1573 = system: SW 1573
# Procedure, shortened: as §1
# UMC-11 = system: UMC-11
# Procedure, shortened: as §1
structure (smiles),measurement,setting,value
Clc1ccc(Nc2nnc(Cc3ccncc3)c3ccccc23)cc1 [Vatalanib] + Nc1ncn([C@H]2C[C@H](O)[C@@H](CO)O2)c(=O)n1 [Decitabine] (partner 2 µM),relative viability,ABC-1; first compound 0.04 µM,1.02
same,relative viability,ABC-1; first compound 0.1265 µM,0.79
same,relative viability,ABC-1; first compound 0.4 µM,1.17
same,relative viability,ABC-1; first compound 4 µM,1.22
same,relative viability,COR-L23; first compound 0.04 µM,0.503
same,relative viability,COR-L23; first compound 0.1265 µM,0.414
same,relative viability,COR-L23; first compound 0.4 µM,0.565
same,relative viability,COR-L23; first compound 1.265 µM,0.441
same,relative viability,COR-L23; first compound 4 µM,0.404
same,relative viability,EPLC-272H; first compound 0.04 µM,0.357
same,relative viability,EPLC-272H; first compound 0.1265 µM,0.342
same,relative viability,EPLC-272H; first compound 0.4 µM,0.35
same,relative viability,EPLC-272H; first compound 1.265 µM,0.356
same,relative viability,EPLC-272H; first compound 4 µM,0.378
same,relative viability,HARA; first compound 0.04 µM,0.623
same,relative viability,HARA; first compound 0.1265 µM,0.446
same,relative viability,HARA; first compound 0.4 µM,0.463
same,relative viability,HARA; first compound 1.265 µM,0.526
same,relative viability,HARA; first compound 4 µM,0.521
same,relative viability,HCC-15; first compound 0.04 µM,0.607
same,relative viability,HCC-15; first compound 0.1265 µM,0.689
same,relative viability,HCC-15; first compound 0.4 µM,0.716
same,relative viability,HCC-15; first compound 1.265 µM,0.627
same,relative viability,HCC-15; first compound 4 µM,0.665
same,relative viability,HCC-78; first compound 0.04 µM,0.744
same,relative viability,HCC-78; first compound 0.1265 µM,0.723
same,relative viability,HCC-78; first compound 0.4 µM,0.773
same,relative viability,HCC-78; first compound 1.265 µM,0.719
same,relative viability,HCC-78; first compound 4 µM,0.684
same,relative viability,LC-2-ad; first compound 0.04 µM,0.803
same,relative viability,LC-2-ad; first compound 0.1265 µM,0.753
same,relative viability,LC-2-ad; first compound 0.4 µM,0.768
same,relative viability,LC-2-ad; first compound 1.265 µM,0.776
same,relative viability,LC-2-ad; first compound 4 µM,0.861
same,relative viability,LU99A; first compound 0.04 µM,0.835
same,relative viability,LU99A; first compound 0.1265 µM,0.842
same,relative viability,LU99A; first compound 0.4 µM,0.962
same,relative viability,LU99A; first compound 1.265 µM,0.868
same,relative viability,LU99A; first compound 4 µM,0.84
same,relative viability,NCI-H1651; first compound 0.04 µM,0.518
same,relative viability,NCI-H1651; first compound 0.1265 µM,0.59
same,relative viability,NCI-H1651; first compound 0.4 µM,0.495
same,relative viability,NCI-H1651; first compound 1.265 µM,0.565
same,relative viability,NCI-H1651; first compound 4 µM,0.668
same,relative viability,NCI-H1915; first compound 0.04 µM,0.251
same,relative viability,NCI-H1915; first compound 0.1265 µM,0.257
same,relative viability,NCI-H1915; first compound 0.4 µM,0.273
same,relative viability,NCI-H1915; first compound 1.265 µM,0.257
same,relative viability,NCI-H1915; first compound 4 µM,0.276
same,relative viability,NCI-H1993; first compound 0.04 µM,0.57
same,relative viability,NCI-H1993; first compound 0.1265 µM,0.607
same,relative viability,NCI-H1993; first compound 0.4 µM,0.541
same,relative viability,NCI-H1993; first compound 1.265 µM,0.488
same,relative viability,NCI-H1993; first compound 4 µM,0.495
same,relative viability,NCI-H2009; first compound 0.04 µM,0.378
same,relative viability,NCI-H2009; first compound 0.1265 µM,0.334
same,relative viability,NCI-H2009; first compound 0.4 µM,0.343
same,relative viability,NCI-H2009; first compound 1.265 µM,0.404
same,relative viability,NCI-H2009; first compound 4 µM,0.396
same,relative viability,NCI-H2085; first compound 0.04 µM,0.556
same,relative viability,NCI-H2085; first compound 0.1265 µM,0.552
same,relative viability,NCI-H2085; first compound 0.4 µM,0.476
same,relative viability,NCI-H2085; first compound 1.265 µM,0.52
same,relative viability,NCI-H2085; first compound 4 µM,0.527
same,relative viability,NCI-H2126; first compound 0.04 µM,0.514
same,relative viability,NCI-H2126; first compound 0.1265 µM,0.534
same,relative viability,NCI-H2126; first compound 0.4 µM,0.594
same,relative viability,NCI-H2126; first compound 1.265 µM,0.565
same,relative viability,NCI-H2126; first compound 4 µM,0.634
same,relative viability,NCI-H2342; first compound 0.04 µM,0.611
same,relative viability,NCI-H2342; first compound 0.1265 µM,0.781
same,relative viability,NCI-H2342; first compound 0.4 µM,0.718
same,relative viability,NCI-H2342; first compound 1.265 µM,0.736
same,relative viability,NCI-H2342; first compound 4 µM,0.641
same,relative viability,NCI-H2347; first compound 0.04 µM,0.616
same,relative viability,NCI-H2347; first compound 0.1265 µM,0.62
same,relative viability,NCI-H2347; first compound 0.4 µM,0.624
same,relative viability,NCI-H2347; first compound 1.265 µM,0.602
same,relative viability,NCI-H2347; first compound 4 µM,0.64
same,relative viability,NCI-H358; first compound 0.04 µM,0.23
same,relative viability,NCI-H358; first compound 0.1265 µM,0.204
same,relative viability,NCI-H358; first compound 0.4 µM,0.246
same,relative viability,NCI-H358; first compound 1.265 µM,0.21
same,relative viability,NCI-H358; first compound 4 µM,0.234
same,relative viability,NCI-H460; first compound 0.04 µM,0.502
same,relative viability,NCI-H460; first compound 0.1265 µM,0.481
same,relative viability,NCI-H460; first compound 0.4 µM,0.482
same,relative viability,NCI-H460; first compound 1.265 µM,0.47
same,relative viability,NCI-H460; first compound 4 µM,0.495
same,relative viability,NCI-H522; first compound 0.04 µM,0.711
same,relative viability,NCI-H522; first compound 0.1265 µM,0.685
same,relative viability,NCI-H522; first compound 0.4 µM,0.698
same,relative viability,NCI-H522; first compound 1.265 µM,0.696
same,relative viability,NCI-H522; first compound 4 µM,0.596
same,relative viability,NCI-H650; first compound 0.04 µM,0.292
same,relative viability,NCI-H650; first compound 0.1265 µM,0.337
same,relative viability,NCI-H650; first compound 0.4 µM,0.306
same,relative viability,NCI-H650; first compound 1.265 µM,0.327
same,relative viability,NCI-H650; first compound 4 µM,0.334
same,relative viability,NCI-H838; first compound 0.04 µM,0.435
same,relative viability,NCI-H838; first compound 0.1265 µM,0.467
same,relative viability,NCI-H838; first compound 0.4 µM,0.441
same,relative viability,NCI-H838; first compound 1.265 µM,0.483
same,relative viability,NCI-H838; first compound 4 µM,0.448
same,relative viability,PC-14; first compound 0.04 µM,0.231
same,relative viability,PC-14; first compound 0.1265 µM,0.213
same,relative viability,PC-14; first compound 0.4 µM,0.219
same,relative viability,PC-14; first compound 1.265 µM,0.174
same,relative viability,PC-14; first compound 4 µM,0.253
same,relative viability,SW 1573; first compound 0.04 µM,0.541
same,relative viability,SW 1573; first compound 0.1265 µM,0.482
same,relative viability,SW 1573; first compound 0.4 µM,0.39
same,relative viability,SW 1573; first compound 1.265 µM,0.455
same,relative viability,SW 1573; first compound 4 µM,0.493
same,relative viability,UMC-11; first compound 0.04 µM,1.08
same,relative viability,UMC-11; first compound 0.1265 µM,0.624
same,relative viability,UMC-11; first compound 0.4 µM,0.462
same,relative viability,UMC-11; first compound 1.265 µM,0.563
same,relative viability,UMC-11; first compound 4 µM,0.619
